Measured values from publication PMC4503722, “Novel Phenotypic Outcomes Identified for a Public Collection of Approved Drugs from a Publicly Accessible Panel of Assays” (PLoS ONE, 2015).
Read-outs that look alike come from different tables or passages of the source.

Tests used:
[1] = system: INS-1E cells; format: cell-based, rat;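 on 5mMGluc INS1E SecretionMod IC50/EC50: secreted insulin quantified by homogeneous immunoassay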
[2] = system: INS-1E cells; assay: cells; format: cell-based, rat
[3] = biological target: T1, hGSK3b (Homo sapiens, UniProt P49841); assay: Cerep LANCE kinase assay hGSK3b (S1 assay 34); format: biochemical
T1 construct: purchased Cerep (LANCE kinase assay platform, contract assay)
T1 sequence (P49841 whole entry): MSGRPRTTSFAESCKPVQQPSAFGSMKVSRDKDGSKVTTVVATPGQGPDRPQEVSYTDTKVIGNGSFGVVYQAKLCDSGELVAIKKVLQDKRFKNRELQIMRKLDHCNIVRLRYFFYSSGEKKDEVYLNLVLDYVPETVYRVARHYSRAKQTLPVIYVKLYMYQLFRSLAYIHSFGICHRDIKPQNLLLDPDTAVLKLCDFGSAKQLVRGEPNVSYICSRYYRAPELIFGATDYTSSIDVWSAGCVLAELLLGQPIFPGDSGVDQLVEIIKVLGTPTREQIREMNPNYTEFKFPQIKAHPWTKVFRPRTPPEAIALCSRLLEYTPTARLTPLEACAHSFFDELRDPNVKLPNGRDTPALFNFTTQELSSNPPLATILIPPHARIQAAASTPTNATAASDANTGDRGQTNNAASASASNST

[4] = system: endothelial tube formation in co-cultures of ECFCs and ADSCs treated with VEGF; assay: cells; format: cell-based, human
[5] = biological target: T2, hJAK2 (Homo sapiens, UniProt O60674); assay: Cerep LANCE kinase assay hJAK2 (S1 assay 33); format: biochemical
T2 construct: purchased Cerep (LANCE kinase assay platform, contract assay)
T2 sequence (O60674 whole entry): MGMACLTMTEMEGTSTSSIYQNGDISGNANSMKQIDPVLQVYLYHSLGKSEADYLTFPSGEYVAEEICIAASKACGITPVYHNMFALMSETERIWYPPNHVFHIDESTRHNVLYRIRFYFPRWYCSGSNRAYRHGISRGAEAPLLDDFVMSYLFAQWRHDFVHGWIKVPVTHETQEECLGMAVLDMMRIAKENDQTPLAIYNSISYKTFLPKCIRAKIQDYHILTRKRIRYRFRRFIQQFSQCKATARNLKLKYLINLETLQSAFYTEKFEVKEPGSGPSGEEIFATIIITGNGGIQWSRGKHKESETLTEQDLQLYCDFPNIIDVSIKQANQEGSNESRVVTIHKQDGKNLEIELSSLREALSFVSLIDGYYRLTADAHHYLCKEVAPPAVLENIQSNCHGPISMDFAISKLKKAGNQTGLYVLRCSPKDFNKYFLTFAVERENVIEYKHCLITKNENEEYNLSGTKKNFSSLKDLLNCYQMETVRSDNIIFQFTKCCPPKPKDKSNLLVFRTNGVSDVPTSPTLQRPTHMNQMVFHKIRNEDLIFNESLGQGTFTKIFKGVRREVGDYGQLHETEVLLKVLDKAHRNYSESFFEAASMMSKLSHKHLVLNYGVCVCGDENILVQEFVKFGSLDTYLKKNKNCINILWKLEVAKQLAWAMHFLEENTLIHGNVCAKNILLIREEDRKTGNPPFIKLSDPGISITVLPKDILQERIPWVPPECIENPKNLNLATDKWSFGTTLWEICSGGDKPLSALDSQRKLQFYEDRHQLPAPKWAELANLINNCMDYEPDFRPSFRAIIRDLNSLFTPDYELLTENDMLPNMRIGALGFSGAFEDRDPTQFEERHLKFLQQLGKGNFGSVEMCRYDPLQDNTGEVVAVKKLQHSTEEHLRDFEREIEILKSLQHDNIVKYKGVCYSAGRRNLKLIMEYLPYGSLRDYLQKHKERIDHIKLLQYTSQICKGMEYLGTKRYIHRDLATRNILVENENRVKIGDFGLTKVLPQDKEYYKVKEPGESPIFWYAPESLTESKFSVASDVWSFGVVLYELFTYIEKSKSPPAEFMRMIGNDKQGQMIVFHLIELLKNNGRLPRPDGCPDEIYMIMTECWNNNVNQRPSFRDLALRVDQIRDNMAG

[6] = system: SNU-C1; assay: cells; format: cell-based; conditions: basal
[7] = system: ECFC/ADSC co-culture cell nuclei number
[8] = system: STC-1 cell line; format: cell-based, mouse; conditions: concentration response
[9] = system: SW480; assay: cells; format: cell-based; conditions: basal
[10] = system: DLD-1; assay: cells; format: cell-based; conditions: basal
[11] = system: HCT116 cells treated with a GSK3β inhibitor; assay: cells; format: cell-based; conditions: GSK3b inh pretreated
[12] = system: NCI-H716 cells; assay: cells; format: cell-based, Human; conditions: concentration response
[13] = biological target: T3, hFLT3 (Homo sapiens, UniProt P36888); assay: Cerep LANCE kinase assay hFLT3 (S1 assay 35); format: biochemical
T3 construct: purchased Cerep (LANCE kinase assay platform, contract assay)
T3 sequence (P36888 27-993): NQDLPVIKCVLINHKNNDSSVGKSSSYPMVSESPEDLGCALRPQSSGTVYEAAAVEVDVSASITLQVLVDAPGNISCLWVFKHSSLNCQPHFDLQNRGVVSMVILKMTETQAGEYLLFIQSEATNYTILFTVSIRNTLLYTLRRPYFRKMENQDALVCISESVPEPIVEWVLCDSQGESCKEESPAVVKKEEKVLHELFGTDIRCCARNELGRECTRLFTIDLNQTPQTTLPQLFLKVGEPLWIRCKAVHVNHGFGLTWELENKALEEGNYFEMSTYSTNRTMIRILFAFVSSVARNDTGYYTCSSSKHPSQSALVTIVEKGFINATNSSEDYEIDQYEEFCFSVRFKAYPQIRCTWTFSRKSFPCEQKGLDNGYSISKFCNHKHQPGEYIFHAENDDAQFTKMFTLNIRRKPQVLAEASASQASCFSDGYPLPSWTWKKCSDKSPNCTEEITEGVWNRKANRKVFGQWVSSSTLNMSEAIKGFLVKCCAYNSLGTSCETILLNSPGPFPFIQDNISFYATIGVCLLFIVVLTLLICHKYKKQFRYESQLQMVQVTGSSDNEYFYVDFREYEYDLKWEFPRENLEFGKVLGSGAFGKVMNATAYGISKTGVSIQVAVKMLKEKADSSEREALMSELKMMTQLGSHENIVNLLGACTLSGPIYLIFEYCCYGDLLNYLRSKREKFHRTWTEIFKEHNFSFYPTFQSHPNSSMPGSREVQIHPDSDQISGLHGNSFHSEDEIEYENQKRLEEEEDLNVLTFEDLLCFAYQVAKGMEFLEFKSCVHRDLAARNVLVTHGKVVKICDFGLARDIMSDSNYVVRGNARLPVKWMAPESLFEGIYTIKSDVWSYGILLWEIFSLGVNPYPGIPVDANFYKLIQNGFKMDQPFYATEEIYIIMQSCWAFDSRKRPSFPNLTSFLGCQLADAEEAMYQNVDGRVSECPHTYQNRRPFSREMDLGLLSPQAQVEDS

[14] = system: HT-29; assay: cells; format: cell-based; conditions: basal
[15] = system: Colo320; assay: cells; format: cell-based; conditions: basal
[16] = biological target: T4, hp70S6K1 (RPS6KB1) (Homo sapiens, UniProt P23443); assay: Cerep LANCE kinase assay hp70S6K1 (S1 assay 31); format: biochemical
T4 construct: purchased Cerep (LANCE kinase assay platform, contract assay)
T4 sequence (P23443 whole entry): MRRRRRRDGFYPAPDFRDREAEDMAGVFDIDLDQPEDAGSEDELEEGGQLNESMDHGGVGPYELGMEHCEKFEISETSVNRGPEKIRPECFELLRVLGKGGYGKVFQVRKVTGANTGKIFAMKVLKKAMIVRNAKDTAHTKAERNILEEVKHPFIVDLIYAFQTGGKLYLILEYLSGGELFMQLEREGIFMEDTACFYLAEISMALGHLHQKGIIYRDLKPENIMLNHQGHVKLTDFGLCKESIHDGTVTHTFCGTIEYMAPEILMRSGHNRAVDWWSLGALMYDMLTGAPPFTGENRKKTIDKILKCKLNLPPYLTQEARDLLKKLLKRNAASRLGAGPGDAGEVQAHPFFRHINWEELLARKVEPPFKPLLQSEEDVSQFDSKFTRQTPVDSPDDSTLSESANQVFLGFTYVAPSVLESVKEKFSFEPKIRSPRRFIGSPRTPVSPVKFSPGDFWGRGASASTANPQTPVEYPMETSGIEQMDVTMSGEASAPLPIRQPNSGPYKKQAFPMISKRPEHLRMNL

[17] = system: RKO; assay: cells; format: cell-based; conditions: basal
[18] = system: alkaline phosphatase (ALP) activity in C2C12 cells; format: cell-based; conditions: concentration response
[19] = system: HeLa cells; assay: cells; format: cell-based
[20] = system: HCT116; assay: cells; format: cell-based; conditions: basal
[21] = system: nuclear β-catenin in C2C12 cells; assay: cells; format: cell-based; conditions: concentration response
[22] = biological target: T5, hKDR (Homo sapiens, UniProt P35968); assay: Cerep LANCE kinase assay hKDR (S1 assay 32); format: biochemical
T5 construct: purchased Cerep (LANCE kinase assay platform, contract assay)
T5 sequence (P35968 20-1356): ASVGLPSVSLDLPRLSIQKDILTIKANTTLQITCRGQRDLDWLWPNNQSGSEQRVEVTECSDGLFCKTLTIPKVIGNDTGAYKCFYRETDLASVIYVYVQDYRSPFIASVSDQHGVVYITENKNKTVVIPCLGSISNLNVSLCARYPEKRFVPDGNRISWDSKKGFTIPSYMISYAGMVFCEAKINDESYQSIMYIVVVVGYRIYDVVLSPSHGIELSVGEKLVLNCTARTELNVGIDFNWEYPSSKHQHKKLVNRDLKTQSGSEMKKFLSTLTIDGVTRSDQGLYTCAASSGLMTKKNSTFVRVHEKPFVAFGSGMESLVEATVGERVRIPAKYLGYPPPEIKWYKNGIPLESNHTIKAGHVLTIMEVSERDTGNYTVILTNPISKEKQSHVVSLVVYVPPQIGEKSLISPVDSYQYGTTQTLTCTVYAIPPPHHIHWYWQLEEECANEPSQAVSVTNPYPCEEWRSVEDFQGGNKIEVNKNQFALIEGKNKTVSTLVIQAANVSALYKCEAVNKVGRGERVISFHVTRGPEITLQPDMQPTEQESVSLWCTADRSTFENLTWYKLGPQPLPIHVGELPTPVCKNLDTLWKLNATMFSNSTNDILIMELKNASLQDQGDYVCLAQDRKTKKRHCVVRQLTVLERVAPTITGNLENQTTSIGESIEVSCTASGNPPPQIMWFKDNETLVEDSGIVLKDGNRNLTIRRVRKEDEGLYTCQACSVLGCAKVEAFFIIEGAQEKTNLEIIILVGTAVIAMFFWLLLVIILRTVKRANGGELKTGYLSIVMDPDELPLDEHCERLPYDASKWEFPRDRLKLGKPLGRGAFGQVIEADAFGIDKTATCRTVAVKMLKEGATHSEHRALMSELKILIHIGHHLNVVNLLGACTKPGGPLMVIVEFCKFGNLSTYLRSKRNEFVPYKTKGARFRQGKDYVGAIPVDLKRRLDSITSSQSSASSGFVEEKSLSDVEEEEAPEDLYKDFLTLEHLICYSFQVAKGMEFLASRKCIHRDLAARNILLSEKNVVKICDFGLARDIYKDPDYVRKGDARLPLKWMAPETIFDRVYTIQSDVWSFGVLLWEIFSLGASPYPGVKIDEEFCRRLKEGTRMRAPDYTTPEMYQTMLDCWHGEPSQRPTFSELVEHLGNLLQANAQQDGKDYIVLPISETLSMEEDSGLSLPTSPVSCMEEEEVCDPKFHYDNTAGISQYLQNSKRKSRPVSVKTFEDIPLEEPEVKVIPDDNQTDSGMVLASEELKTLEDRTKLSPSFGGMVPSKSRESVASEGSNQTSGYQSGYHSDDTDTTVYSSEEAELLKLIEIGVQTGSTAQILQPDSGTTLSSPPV

CC(C)(C)c1nnc(NS(=O)(=O)c2ccccc2)s1 [NCGC00182991-01]
0.1mMGluc_INS1E SecretionMod Act IC50/EC50 ([1]; assay number 9, 0.1 mM glucose): > 33.33 µM
5mMGluc_INS1E SecretionMod IC50/EC50 ([2]; assay number 8, 5 mM glucose): 13.1318 µM

Cl.Nc1c2c(nc3c1CCC3)CCCC2.O [NCGC00263455-01]
0.1mMGluc_INS1E SecretionMod Act IC50/EC50 ([1]; assay number 9, 0.1 mM glucose): > 33.33 µM
5mMGluc_INS1E SecretionMod IC50/EC50 ([2]; assay number 8, 5 mM glucose): 11.7012 µM

O=C(NN1CCCC1)NS(=O)(=O)c1ccc(Cl)cc1 [NCGC00182989-01]
0.1mMGluc_INS1E SecretionMod Act IC50/EC50 [1]: > 33.33 µM
5mMGluc_INS1E SecretionMod IC50/EC50 [2]: 14.8718 µM

COC(=O)Nc1nc2ccc(Sc3ccccc3)cc2[nH]1 [NCGC00016855-10]
IC50/EC50, hGSK3b LANCE (assay number 34) [3]: > 20 µM
IC50/EC50, VEGF_ADSC\ECFC Angio CD31 TubeArea (assay number 2) [4]: 0.2067 µM
IC50/EC50, hJAK2 LANCE (assay number 33) [5]: > 20 µM
IC50/EC50, Basal_Viability ATP SNU-C1 (assay number 30) [6]: > 20 µM
IC50/EC50, VEGF_ADSC\ECFC Angio Hoechst NucArea (assay number 3) [7]: > 10 µM
IC50/EC50, mSTC-1 GLP1 Secretion (assay number 13) [8]: > 20 µM
IC50/EC50, Basal_Viability ATP SW480 (assay number 24) [9]: > 20 µM
IC50/EC50, Basal_Viability ATP DLD-1 (assay number 23) [10]: 0.06726 µM
IC50/EC50, GSK3b inh pretreated_Viability ATP HCT116 (assay number 26) [11]: 3 nM
IC50/EC50, hNCI-H716 GLP1 Secretion (assay number 12) [12]: > 40 µM
IC50/EC50, hFLT3 LANCE (assay number 35) [13]: > 20 µM
IC50/EC50, Basal_Viability ATP HT-29 (assay number 28) [14]: > 20 µM
IC50/EC50, Basal_Viability ATP Colo 320 (assay number 27) [15]: > 20 µM
IC50/EC50, hp70S6K1 LANCE (assay number 31) [16]: > 20 µM
IC50/EC50, Basal_Viability ATP RKO (assay number 29) [17]: 1 nM
IC50/EC50, WntCondMedia_Alk Phos C2C12 (assay number 6) [18]: 0.4382 µM
IC50/EC50, Hela CellCycMod PI 2N (assay number 14) ([19]; 2N): 0.2042 µM
IC50/EC50, Hela CellCycMod PI 4N (assay number 16) ([19]; 4N): 0.195 µM
IC50/EC50, Hela CellCycMod PI Cell Number (assay number 18) ([19]; Cell Number): 9.7 nM
IC50/EC50, Hela CellCycMod PI MI (assay number 17) ([19]; MI): 0.2276 µM
IC50/EC50, Hela CellCycMod PI S Phase (assay number 15) ([19]; S Phase): > 10 µM
IC50/EC50, Basal_Viability ATP HCT116 (assay number 25) [20]: 1 nM
IC50/EC50, WntCondMedia_bCatenin C2C12 (assay number 5) [21]: 4.8413 µM
IC50/EC50, hKDR LANCE (assay number 32) [22]: > 20 µM

COc1cc(C(=O)OCCCN2CCCN(CCCOC(=O)c3cc(OC)c(OC)c(OC)c3)CC2)cc(OC)c1OC [NCGC00016747-07]
0.1mMGluc_INS1E SecretionMod Act IC50/EC50 ([1]; assay number 9, 0.1 mM glucose): 18.0188 µM
5mMGluc_INS1E SecretionMod IC50/EC50 ([2]; assay number 8, 5 mM glucose): 10.1571 µM

CN(C)CC[C@@H](c1ccc(Br)cc1)c1ccccn1.O=C(O)/C=C\C(=O)O [NCGC00015146-11]
0.1mMGluc_INS1E SecretionMod Act IC50/EC50 ([1]; assay number 9, 0.1 mM glucose): 6.368 µM
5mMGluc_INS1E SecretionMod IC50/EC50 ([2]; assay number 8, 5 mM glucose): 3.76 µM

Oc1ccc(CCNCCCCCCNCCc2ccccc2)cc1O [NCGC00184998-02]
0.1mMGluc_INS1E SecretionMod Act IC50/EC50 ([1]; assay number 9, 0.1 mM glucose): > 33.33 µM
5mMGluc_INS1E SecretionMod IC50/EC50 ([2]; assay number 8, 5 mM glucose): > 33.33 µM

CN1CCc2cc(Cl)c(O)cc2[C@H]2c3ccccc3CC[C@@H]21 [NCGC00092362-02]
0.1mMGluc_INS1E SecretionMod Act IC50/EC50 ([1]; assay number 9, 0.1 mM glucose): > 33.33 µM
5mMGluc_INS1E SecretionMod IC50/EC50 ([2]; assay number 8, 5 mM glucose): 15.3649 µM

CN(C)CCC[C@@]1(c2ccc(F)cc2)OCc2cc(C#N)ccc21.O=C(O)C(=O)O [NCGC00178555-02]
0.1mMGluc_INS1E SecretionMod Act IC50/EC50 ([1]; assay number 9, 0.1 mM glucose): > 33.33 µM
5mMGluc_INS1E SecretionMod IC50/EC50 ([2]; assay number 8, 5 mM glucose): 5.447 µM

Cl.NCC1CCC(C(=O)Oc2ccc(CCC(=O)O)cc2)CC1 (stereo not shown) [NCGC00164584-03]
0.1mMGluc_INS1E SecretionMod Act IC50/EC50 ([1]; assay number 9, 0.1 mM glucose): > 33.33 µM
5mMGluc_INS1E SecretionMod IC50/EC50 ([2]; assay number 8, 5 mM glucose): > 33.33 µM

c1cc(CN2CCCCC2)cc(OCCCNc2nc3ccccc3s2)c1 [NCGC00015957-06]
0.1mMGluc_INS1E SecretionMod Act IC50/EC50 ([1]; assay number 9, 0.1 mM glucose): > 33.33 µM
5mMGluc_INS1E SecretionMod IC50/EC50 ([2]; assay number 8, 5 mM glucose): > 11.11 µM

CCOc1cc(CC(=O)N[C@@H](CC(C)C)c2ccccc2N2CCCCC2)ccc1C(=O)O [NCGC00016978-04]
0.1mMGluc_INS1E SecretionMod Act IC50/EC50 ([1]; assay number 9, 0.1 mM glucose): 0.1358 µM
5mMGluc_INS1E SecretionMod IC50/EC50 ([2]; assay number 8, 5 mM glucose): 0.02704 µM
